In ChEMBL document CHEMBL1201862, “PubChem BioAssay data set” (2004):
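Protocol summary: plate cells (96-well), add compound at 5 concentrations, incubate 48 h, interpolate endpoints linearly. GI50 is the concentration that inhibits growth by half.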 The source made the active and inactive calls. No stated cut-off is given here; in the data, active = GI50 up to about 1.1 µM and inactive = higher.

How the values were obtained:
Test in all cases: inhibition of tumour cell growth, NCI panel, 48 h
MDA-MB-435 = system: MDA-MB-435
MDA-MB-231 = system: MDA-MB-231
RPMI-8226 = system: RPMI-8226
ACHN = system: ACHN
KM12 = system: KM12
SF-539 = system: SF-539
NCI-H23 = system: NCI-H23
CCRF-CEM = system: CCRF-CEM
HCT-116 = system: HCT-116
HL-60 = system: HL-60
Malme-3M = system: Malme-3M
EKVX = system: EKVX
DU-145 = system: DU-145
Hs-578T = system: Hs-578T
A549 = system: A549
U-251 = system: U-251
UACC-62 = system: UACC-62
SW-620 = system: SW-620
OVCAR-4 = system: OVCAR-4
COLO 205 = system: COLO 205

SMILES	GI50 (MDA-MB-435)	GI50 (MDA-MB-231)	GI50 (RPMI-8226)	GI50 (ACHN)	GI50 (KM12)	GI50 (SF-539)	GI50 (NCI-H23)	GI50 (CCRF-CEM)	GI50 (HCT-116)	GI50 (HL-60)	GI50 (Malme-3M)	GI50 (EKVX)	GI50 (DU-145)	GI50 (Hs-578T)	GI50 (A549)	GI50 (U-251)	GI50 (UACC-62)	GI50 (SW-620)	GI50 (OVCAR-4)	GI50 (COLO 205)
CC(C)(Oc1ccc(-c2cccc3ccccc23)cc1)C(=O)O	> 100 µM (inactive)	> 100 µM (inactive)	> 100 µM (inactive)	> 100 µM (inactive)	97.7 µM (inactive)	> 100 µM (inactive)	> 100 µM (inactive)	6.22 µM (inactive)	> 100 µM (inactive)	3.86 µM (inactive)	> 100 µM (inactive)	> 100 µM (inactive)	> 100 µM (inactive)	> 100 µM (inactive)	59.6 µM (inactive)	> 100 µM (inactive)	> 100 µM (inactive)	> 100 µM (inactive)	> 100 µM (inactive)	71 µM (inactive)
CC(C)OC(=O)c1ccc(NCc2cc(O)ccc2O)cc1	2.06 µM (inactive)	2.2 µM (inactive)	0.483 µM (active)	3.6 µM (inactive)	3.38 µM (inactive)	1.53 µM (inactive)	4.36 µM (inactive)	0.27 µM (active)	5.81 µM (inactive)	0.462 µM (active)	2.16 µM (inactive)	3.82 µM (inactive)	6.11 µM (inactive)	2.04 µM (inactive)	7.48 µM (inactive)	4.32 µM (inactive)	10.6 µM (inactive)	4.86 µM (inactive)	5.05 µM (inactive)	3.06 µM (inactive)
COc1ccc(C2OC(c3ccncc3)=NN2C)cc1OC (stereo not given)	> 100 µM (inactive)	67.6 µM (inactive)	> 100 µM (inactive)	> 100 µM (inactive)	> 100 µM (inactive)	> 100 µM (inactive)	> 100 µM (inactive)	> 100 µM (inactive)	> 100 µM (inactive)	96.8 µM (inactive)	> 100 µM (inactive)	> 100 µM (inactive)	> 100 µM (inactive)	67 µM (inactive)	> 100 µM (inactive)	> 100 µM (inactive)	> 100 µM (inactive)	> 100 µM (inactive)	> 100 µM (inactive)	> 100 µM (inactive)
c1ccc(CSc2nc(N3CCOCC3)c3cn[nH]c3n2)cc1	17.5 µM (inactive)	17 µM (inactive)	7.85 µM (inactive)	17.2 µM (inactive)	13.3 µM (inactive)	21 µM (inactive)	49.2 µM (inactive)	0.0438 µM (active)	30.5 µM (inactive)	36.6 µM (inactive)	14.1 µM (inactive)	16.4 µM (inactive)	26.2 µM (inactive)	13.2 µM (inactive)	22.8 µM (inactive)	20.5 µM (inactive)	11.4 µM (inactive)	25.9 µM (inactive)	40.7 µM (inactive)	12.6 µM (inactive)
COC(=O)C1=C(OC)[C@H]2C#C/C=C\C#C[C@@H]3Nc4c(cc(O)c5c4C(=O)c4ccccc4C5=O)[C@]24O[C@@]34[C@H]1C	< 0.01 µM (active)	< 0.01 µM (active)	< 0.01 µM (active)	< 0.01 µM (active)	< 0.01 µM (active)	< 0.01 µM (active)	< 0.01 µM (active)	< 0.01 µM (active)	0.0555 µM (active)	< 0.01 µM (active)	< 0.01 µM (active)	< 0.012 µM (active)	< 0.01 µM (active)	0.173 µM (active)	< 0.01 µM (active)	< 0.01 µM (active)	< 0.01 µM (active)	< 0.01 µM (active)	0.0519 µM (active)	< 0.01 µM (active)
NC(=O)C(=O)n1ncc(Cl)c(Cl)c1=O	> 100 µM (inactive)	> 10 µM (inactive)	11.7 µM (inactive)	24.4 µM (inactive)	34.1 µM (inactive)	40.2 µM (inactive)	32.7 µM (inactive)	6.03 µM (inactive)	29.1 µM (inactive)	5.26 µM (inactive)	17.5 µM (inactive)	39.2 µM (inactive)	> 100 µM (inactive)	> 100 µM (inactive)	> 67.8 µM (inactive)	> 40.7 µM (inactive)	31.5 µM (inactive)	13.3 µM (inactive)	29.4 µM (inactive)	> 32.9 µM (inactive)
CS(=O)(=O)OCCN(CCOS(C)(=O)=O)c1ccc(/C=N/c2cccc(Cl)c2)cc1	12.2 µM (inactive)	11.5 µM (inactive)	3.85 µM (inactive)	0.181 µM (active)	13.4 µM (inactive)	3.68 µM (inactive)	1.66 µM (inactive)	1.82 µM (inactive)	64.9 µM (inactive)	2.45 µM (inactive)	12.4 µM (inactive)	7.36 µM (inactive)	1.27 µM (inactive)	26 µM (inactive)	2.64 µM (inactive)	3.72 µM (inactive)	1.5 µM (inactive)	12.8 µM (inactive)	13.5 µM (inactive)	0.811 µM (active)
COc1cc(/C=C2\C(=O)N(c3ccccc3)C(c3ccccc3)S2(=O)=O)cc(OC)c1OC (stereo not given)	27 µM (inactive)	97.5 µM (inactive)	17.2 µM (inactive)	> 100 µM (inactive)	38.4 µM (inactive)	45.1 µM (inactive)	39.1 µM (inactive)	10.6 µM (inactive)	21.1 µM (inactive)	7.36 µM (inactive)	53.1 µM (inactive)	24.2 µM (inactive)	37.9 µM (inactive)	70.3 µM (inactive)	43.8 µM (inactive)	28.6 µM (inactive)	30.1 µM (inactive)	51.3 µM (inactive)	27.5 µM (inactive)	23.3 µM (inactive)
O=C1OC(C2Cc3cc4c(cc3C2=O)CCC4)c2ccccc21 (stereo not given)	40.3 µM (inactive)	36.6 µM (inactive)	35.3 µM (inactive)	47.9 µM (inactive)	35.9 µM (inactive)	27.9 µM (inactive)	47.1 µM (inactive)	25.6 µM (inactive)	36.6 µM (inactive)	42.9 µM (inactive)	> 100 µM (inactive)	49.5 µM (inactive)	93.1 µM (inactive)	22.5 µM (inactive)	44.7 µM (inactive)	34 µM (inactive)	20.7 µM (inactive)	37.3 µM (inactive)	78.3 µM (inactive)	33.9 µM (inactive)
CN(CC#N)C(=O)Cc1ccc([N+](=O)[O-])cc1	> 10 µM (inactive)	> 10 µM (inactive)	> 10 µM (inactive)	> 10 µM (inactive)	> 10 µM (inactive)	> 10 µM (inactive)	> 10 µM (inactive)	> 10 µM (inactive)	> 10 µM (inactive)	> 10 µM (inactive)	> 10 µM (inactive)	> 10 µM (inactive)	> 10 µM (inactive)	> 10 µM (inactive)	> 10 µM (inactive)	> 10 µM (inactive)	> 10 µM (inactive)	> 10 µM (inactive)	> 10 µM (inactive)	> 10 µM (inactive)
O=C1CCC2C(O)c3cc4c(cc3C(c3ccc5c(c3)OCO5)N12)OCO4 (stereo not given)	> 100 µM (inactive)	> 100 µM (inactive)	> 100 µM (inactive)	> 100 µM (inactive)	> 100 µM (inactive)	80 µM (inactive)	> 100 µM (inactive)	> 100 µM (inactive)	> 100 µM (inactive)	> 100 µM (inactive)	> 100 µM (inactive)	> 100 µM (inactive)	> 100 µM (inactive)	24.4 µM (inactive)	> 100 µM (inactive)	26.1 µM (inactive)	> 100 µM (inactive)	> 100 µM (inactive)	> 100 µM (inactive)	> 100 µM (inactive)
O=c1[nH]cnc2c1ncn2[C@@H]1C[C@@H]1CO	> 100 µM (inactive)	> 100 µM (inactive)	> 10 µM (inactive)	> 100 µM (inactive)	> 100 µM (inactive)	> 100 µM (inactive)	> 100 µM (inactive)	> 100 µM (inactive)	> 100 µM (inactive)	> 100 µM (inactive)	> 100 µM (inactive)	> 100 µM (inactive)	> 100 µM (inactive)	6.22 µM (inactive)	> 100 µM (inactive)	> 100 µM (inactive)	> 100 µM (inactive)	> 100 µM (inactive)	> 100 µM (inactive)	> 100 µM (inactive)
CC(C)C[C@H](NC(=O)CCc1ccccc1)B(O)O	2.67 µM (inactive)	17.7 µM (inactive)	2.24 µM (inactive)	5.79 µM (inactive)	16.7 µM (inactive)	4.54 µM (inactive)	16.5 µM (inactive)	2.33 µM (inactive)	5.87 µM (inactive)	2.15 µM (inactive)	11.7 µM (inactive)	42.1 µM (inactive)	60.8 µM (inactive)	5.78 µM (inactive)	35.4 µM (inactive)	31.4 µM (inactive)	14.8 µM (inactive)	4.83 µM (inactive)	36.5 µM (inactive)	12.7 µM (inactive)
C[N+](C)(CCCn1ccnc1[N+](=O)[O-])CCCn1ccnc1[N+](=O)[O-]	> 100 µM (inactive)	> 100 µM (inactive)	> 100 µM (inactive)	> 100 µM (inactive)	> 100 µM (inactive)	> 100 µM (inactive)	> 100 µM (inactive)	> 100 µM (inactive)	> 100 µM (inactive)	> 100 µM (inactive)	> 100 µM (inactive)	> 100 µM (inactive)	> 100 µM (inactive)	> 100 µM (inactive)	> 100 µM (inactive)	> 100 µM (inactive)	> 100 µM (inactive)	> 100 µM (inactive)	> 100 µM (inactive)	> 100 µM (inactive)
